The record followed here is ChEMBL document CHEMBL5678818, “Discovery of potent SOS1 inhibitors that block RAS activation via disruption of the RAS-SOS1 interaction” (Proc Natl Acad Sci U S A, 2019).

In experiment [1] the target is T1, Receptor-interacting serine/threonine-protein kinase 4 (Homo sapiens) (UniProt P57078).
T1 sequence (whole entry): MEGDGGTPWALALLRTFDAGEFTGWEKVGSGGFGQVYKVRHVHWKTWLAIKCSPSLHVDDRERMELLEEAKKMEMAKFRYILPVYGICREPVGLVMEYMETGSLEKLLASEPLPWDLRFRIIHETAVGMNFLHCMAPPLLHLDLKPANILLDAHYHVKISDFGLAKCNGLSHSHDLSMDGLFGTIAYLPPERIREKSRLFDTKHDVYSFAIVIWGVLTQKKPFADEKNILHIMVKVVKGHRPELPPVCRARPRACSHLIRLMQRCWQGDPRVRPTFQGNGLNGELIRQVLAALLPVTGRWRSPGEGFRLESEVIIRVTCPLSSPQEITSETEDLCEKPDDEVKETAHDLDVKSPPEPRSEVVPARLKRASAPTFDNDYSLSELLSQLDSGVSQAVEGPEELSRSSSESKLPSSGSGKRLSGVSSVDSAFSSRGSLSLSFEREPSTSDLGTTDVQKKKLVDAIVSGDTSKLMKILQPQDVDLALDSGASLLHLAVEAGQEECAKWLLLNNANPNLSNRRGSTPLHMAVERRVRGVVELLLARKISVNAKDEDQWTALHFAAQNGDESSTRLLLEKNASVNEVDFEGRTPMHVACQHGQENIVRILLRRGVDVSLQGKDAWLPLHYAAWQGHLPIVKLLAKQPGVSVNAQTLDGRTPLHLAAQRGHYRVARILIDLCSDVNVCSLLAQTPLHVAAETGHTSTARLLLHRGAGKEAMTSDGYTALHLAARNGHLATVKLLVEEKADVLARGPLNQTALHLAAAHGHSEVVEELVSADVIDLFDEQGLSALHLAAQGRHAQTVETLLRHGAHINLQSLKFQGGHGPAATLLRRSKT
The experiment is described as follows: Inhibition of RIPK4 (unknown origin) assessed as residual activity at 100 nM by KINOMEscan analysis relative to control.

The target of experiment [2] is Ribosomal protein S6 kinase alpha-5 (Homo sapiens) (UniProt O75582). The experiment is described as follows: Inhibition of C-terminal RPS6KA5 kinetic domain 2 (unknown origin) assessed as residual activity at 100 nM by KINOMEscan analysis relative to control.
Experiment [3] has as its target T2, Serine/threonine-protein kinase Nek10 (Homo sapiens) (UniProt Q6ZWH5).
T2 sequence (whole entry): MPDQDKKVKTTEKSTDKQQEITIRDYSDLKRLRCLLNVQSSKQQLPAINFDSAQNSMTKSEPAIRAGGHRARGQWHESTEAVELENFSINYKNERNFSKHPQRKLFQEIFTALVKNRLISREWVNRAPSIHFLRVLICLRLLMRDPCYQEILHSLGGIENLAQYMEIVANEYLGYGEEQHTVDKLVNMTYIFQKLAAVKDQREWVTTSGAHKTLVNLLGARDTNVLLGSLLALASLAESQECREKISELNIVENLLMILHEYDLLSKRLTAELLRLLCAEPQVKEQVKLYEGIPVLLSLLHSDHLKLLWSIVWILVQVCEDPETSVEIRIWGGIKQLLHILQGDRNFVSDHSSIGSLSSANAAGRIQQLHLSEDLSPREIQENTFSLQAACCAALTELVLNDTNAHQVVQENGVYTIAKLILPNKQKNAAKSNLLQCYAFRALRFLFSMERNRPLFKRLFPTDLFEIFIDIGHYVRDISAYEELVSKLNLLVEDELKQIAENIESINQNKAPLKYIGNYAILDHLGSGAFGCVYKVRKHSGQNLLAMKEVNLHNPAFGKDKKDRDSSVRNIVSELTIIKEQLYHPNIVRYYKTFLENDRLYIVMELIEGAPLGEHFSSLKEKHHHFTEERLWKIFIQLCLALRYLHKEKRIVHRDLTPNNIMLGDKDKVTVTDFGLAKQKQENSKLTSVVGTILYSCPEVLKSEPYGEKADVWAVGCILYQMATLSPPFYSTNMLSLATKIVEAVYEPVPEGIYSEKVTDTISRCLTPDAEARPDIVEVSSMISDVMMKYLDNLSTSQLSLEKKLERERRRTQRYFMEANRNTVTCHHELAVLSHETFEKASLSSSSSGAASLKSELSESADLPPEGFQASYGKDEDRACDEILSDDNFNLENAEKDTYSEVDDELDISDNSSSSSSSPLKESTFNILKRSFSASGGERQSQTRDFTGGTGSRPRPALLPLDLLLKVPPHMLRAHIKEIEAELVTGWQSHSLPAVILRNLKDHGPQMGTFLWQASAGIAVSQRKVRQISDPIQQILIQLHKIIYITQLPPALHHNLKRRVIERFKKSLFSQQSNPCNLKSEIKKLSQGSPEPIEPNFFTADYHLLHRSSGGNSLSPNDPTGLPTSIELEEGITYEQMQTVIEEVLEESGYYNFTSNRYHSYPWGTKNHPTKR
The experiment is described as follows: Inhibition of NEK10 (unknown origin) assessed as residual activity at 100 nM by KINOMEscan analysis relative to control.

Experiment [4] has as its target Serine/threonine-protein kinase Nek7 (Homo sapiens) (UniProt Q8TDX7). The experiment is described as follows: Inhibition of NEK7 (unknown origin) assessed as residual activity at 100 nM by KINOMEscan analysis relative to control.
Experiment [5] has as its target T3, Serine/threonine-protein kinase DCLK3 (Homo sapiens) (UniProt Q9C098).
T3 sequence (whole entry): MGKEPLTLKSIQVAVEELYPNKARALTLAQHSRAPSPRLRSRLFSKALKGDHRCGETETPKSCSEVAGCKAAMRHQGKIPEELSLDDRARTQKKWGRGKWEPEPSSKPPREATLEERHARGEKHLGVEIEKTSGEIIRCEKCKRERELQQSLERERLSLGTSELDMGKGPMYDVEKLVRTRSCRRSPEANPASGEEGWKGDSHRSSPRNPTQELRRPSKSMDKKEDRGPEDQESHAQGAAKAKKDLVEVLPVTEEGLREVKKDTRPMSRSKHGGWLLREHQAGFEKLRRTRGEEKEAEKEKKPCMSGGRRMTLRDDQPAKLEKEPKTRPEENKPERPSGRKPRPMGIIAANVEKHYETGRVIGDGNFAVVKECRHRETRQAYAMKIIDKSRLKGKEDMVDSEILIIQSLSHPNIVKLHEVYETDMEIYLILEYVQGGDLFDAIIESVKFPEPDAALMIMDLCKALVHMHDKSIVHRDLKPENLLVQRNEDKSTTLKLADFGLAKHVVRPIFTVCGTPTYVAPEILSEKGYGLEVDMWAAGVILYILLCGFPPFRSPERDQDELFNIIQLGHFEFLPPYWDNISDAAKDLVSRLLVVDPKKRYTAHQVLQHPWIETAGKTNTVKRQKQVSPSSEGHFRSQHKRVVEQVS
The experiment is described as follows: Inhibition of DCAMKL3 (unknown origin) assessed as residual activity at 100 nM by KINOMEscan analysis relative to control.

For experiment [6], the target named is Platelet-derived growth factor receptor beta (Homo sapiens) (UniProt P09619). The experiment is described as follows: Inhibition of PDGFRB (unknown origin) assessed as residual activity at 100 nM by KINOMEscan analysis relative to control.
Chain of Platelet-derived growth factor receptor beta (Homo sapiens) (P09619 whole entry): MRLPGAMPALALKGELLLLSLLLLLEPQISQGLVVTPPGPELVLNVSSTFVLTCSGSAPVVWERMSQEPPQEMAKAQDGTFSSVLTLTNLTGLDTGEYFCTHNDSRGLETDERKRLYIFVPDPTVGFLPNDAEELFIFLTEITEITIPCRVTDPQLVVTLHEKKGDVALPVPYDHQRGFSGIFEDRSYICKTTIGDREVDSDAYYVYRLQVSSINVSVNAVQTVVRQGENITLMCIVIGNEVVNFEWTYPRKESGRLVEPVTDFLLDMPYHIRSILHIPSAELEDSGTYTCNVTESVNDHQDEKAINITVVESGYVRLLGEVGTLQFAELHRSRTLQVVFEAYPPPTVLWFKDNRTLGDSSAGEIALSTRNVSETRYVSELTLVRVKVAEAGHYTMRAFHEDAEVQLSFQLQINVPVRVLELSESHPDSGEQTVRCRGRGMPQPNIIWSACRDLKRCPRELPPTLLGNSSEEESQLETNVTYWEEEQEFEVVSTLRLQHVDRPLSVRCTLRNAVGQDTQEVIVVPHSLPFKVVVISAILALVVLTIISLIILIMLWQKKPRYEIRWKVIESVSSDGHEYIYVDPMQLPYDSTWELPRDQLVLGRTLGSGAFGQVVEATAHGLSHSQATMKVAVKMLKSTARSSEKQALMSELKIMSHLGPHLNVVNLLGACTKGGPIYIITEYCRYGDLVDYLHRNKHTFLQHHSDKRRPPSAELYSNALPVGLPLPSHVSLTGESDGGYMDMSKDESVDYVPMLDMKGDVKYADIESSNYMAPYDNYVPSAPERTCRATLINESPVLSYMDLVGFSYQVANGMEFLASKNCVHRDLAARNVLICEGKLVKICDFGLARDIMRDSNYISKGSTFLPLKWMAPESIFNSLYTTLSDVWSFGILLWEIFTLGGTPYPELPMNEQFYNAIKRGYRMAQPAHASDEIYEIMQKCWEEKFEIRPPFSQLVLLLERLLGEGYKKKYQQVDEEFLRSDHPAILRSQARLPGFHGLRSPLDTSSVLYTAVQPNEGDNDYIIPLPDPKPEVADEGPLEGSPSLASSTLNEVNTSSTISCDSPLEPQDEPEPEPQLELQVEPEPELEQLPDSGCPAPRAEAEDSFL

Chain of Serine/threonine-protein kinase Nek7 (Homo sapiens) (Q8TDX7 whole entry, looked up): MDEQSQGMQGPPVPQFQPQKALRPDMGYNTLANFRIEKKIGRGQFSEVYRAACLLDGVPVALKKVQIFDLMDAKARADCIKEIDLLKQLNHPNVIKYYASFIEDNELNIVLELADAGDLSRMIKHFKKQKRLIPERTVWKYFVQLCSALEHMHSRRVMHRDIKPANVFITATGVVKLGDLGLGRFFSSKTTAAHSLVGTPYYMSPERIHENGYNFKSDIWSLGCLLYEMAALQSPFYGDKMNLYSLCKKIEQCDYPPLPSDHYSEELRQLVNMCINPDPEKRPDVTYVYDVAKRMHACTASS
Chain of Ribosomal protein S6 kinase alpha-5 (Homo sapiens) (O75582 whole entry, looked up, the tested form may be a part): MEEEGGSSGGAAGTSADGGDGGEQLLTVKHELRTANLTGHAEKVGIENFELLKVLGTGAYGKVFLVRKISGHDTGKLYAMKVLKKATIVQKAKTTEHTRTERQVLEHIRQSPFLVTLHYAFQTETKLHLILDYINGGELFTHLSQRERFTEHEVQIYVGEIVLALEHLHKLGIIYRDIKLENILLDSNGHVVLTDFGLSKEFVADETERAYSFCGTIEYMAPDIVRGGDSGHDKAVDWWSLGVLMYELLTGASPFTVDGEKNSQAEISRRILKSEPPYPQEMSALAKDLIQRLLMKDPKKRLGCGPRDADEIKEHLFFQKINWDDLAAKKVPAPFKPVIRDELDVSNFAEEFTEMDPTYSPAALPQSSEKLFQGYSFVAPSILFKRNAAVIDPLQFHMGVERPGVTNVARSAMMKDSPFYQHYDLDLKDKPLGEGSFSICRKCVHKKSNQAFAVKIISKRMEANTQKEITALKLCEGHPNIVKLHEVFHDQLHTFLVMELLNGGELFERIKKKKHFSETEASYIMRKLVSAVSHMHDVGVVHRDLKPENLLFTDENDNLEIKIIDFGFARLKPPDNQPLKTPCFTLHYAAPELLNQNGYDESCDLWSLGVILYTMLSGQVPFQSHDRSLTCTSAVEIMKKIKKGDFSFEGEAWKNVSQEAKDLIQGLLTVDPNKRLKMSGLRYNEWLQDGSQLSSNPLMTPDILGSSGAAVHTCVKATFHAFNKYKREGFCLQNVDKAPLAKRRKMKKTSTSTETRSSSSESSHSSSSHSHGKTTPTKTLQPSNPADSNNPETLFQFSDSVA

On to `COc1cc2ncnc(N[C@H](C)c3cccc4ccccc34)c2cc1OC`, for which the Activity in experiment [1] was determined as 77%; in experiment [2], 52%; in experiment [3], 75%; in experiment [4] it was 100%; in experiment [5] it was 84%; in experiment [6] it was 100%.
